In US5668116A, “Anti-inflammatory compounds and compositions” (Anthropharm Pty. Limited, priority 1987, dated 1997):
Where “and” joins values, the source holds several entries; their conditions need not be identical. Equal entries are not always repeated.

Legend:
[1] = system: mature rabbit articular cartilage; conditions: 8 week intra-articular treatment
[2] = system: human synovial fibroblasts (line derived from OA joints); test: In vitro biosynthesis of hyaluronic acid by synovial fibroblasts; format: cell-based; conditions: for in vitro biosynthesis of hyaluronic acid (HA): FIG. 1, 2, 17
[3] = biological target: T1, human granulocyte elastase (HGE) (Homo sapiens, UniProt P08246); test: Inhibition of human granulocyte elastase (HGE), SAAVNA substrate; format: biochemical
T1 construct: HGE prepared according to the method of Andrews et al; from tissue
T1 sequence (P08246 30-247 limits assumed): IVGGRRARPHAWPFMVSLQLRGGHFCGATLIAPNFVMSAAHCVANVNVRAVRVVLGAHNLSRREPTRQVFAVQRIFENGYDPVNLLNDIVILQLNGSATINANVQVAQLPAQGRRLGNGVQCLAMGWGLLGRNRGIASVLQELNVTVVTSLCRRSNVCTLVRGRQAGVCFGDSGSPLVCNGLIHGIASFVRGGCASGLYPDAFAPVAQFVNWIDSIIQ
From the text: (a) HGE prepared according to the method of Andrews et al (Chem. Biological Int. 47, 157, 1983) was used to degrade
the synthetic specific substrate for this enzyme-(succinyl-dialanyl-valyl nitroanalide (SAAVNA)).
In these experiments the inhibitory activity of DH40J, PPS as SP54® and mixtures of SP54® and ZnSO4 in various proportions against HGE using the same condition as in (a), except that a different enzyme preparation was used, were investigated. […] A variety of ratios of Zn^+ to SP54® were tested for their ability to inhibit the HGE.

[4] = system: articular cartilages implanted in rat air pouches; test: Rat air pouch model, loss of proteoglycans from implanted articular cartilage; format: in vivo; conditions: 10 mg/kg/day into the air pouch for seven days, peptone inflammation; FIG. 12
Experimental: This model was originally described by Sin, M. Y., et al J. Path. 141, 23 (1984) and Sedgwick A. D. et al Ann. Rheum. Dis. 43, 418 (1984) and provides a convenient and reproducable method of evaluating the effects of drugs on cartilage metabolism in vivo. This model was used to investigate the influence of SP54® and DH40J when administered into the rat air pouch at 10 mg/kg on the loss of cartilage proteoglycans (PGs) induced by an inflammatory cell invasion of the pouch.
Air pouches were created on the dorsal surface of male 200 gm Wistar rats by the initial injection of 20 ml of sterile air. Re-injection every second day maintained cavity inflation. Articular cartilage (AC) aseptically harvested from the knee joints of 10 week old New Zealand White rabbits, was implanted into formed 7 day old rat air pouches. Drugs (10 mg/kg), diluted in saline, were administered daily into the air pouch beginning the day of cartilage implantation. Saline was administered to a control group. Inflammation of the air pouch was achieved by the injection of 10 ml of sterile 3% peptone into the pouch every second day, beginning the day of cartilage implantation. […] Cells in the APF were stained with crystal violet and a total cell count determined. […] Implanted AC (8-10 mgs) was digested by papain and PG content was determined by hexuronic acid and sulphated glycosaminoglycan (GAG) analysis. […]

[5] = in vitro; Arch. Int. Pharmacodyn. Ther. 282, 196-208 (1986); cited from earlier work
[6] = Table 7, different enzyme preparation, single inhibitor

| Compound | 4M Gu HCl,PG Extractability ([1]; individual joints) | 35S-PG Specific (activity) ([1]; individual joints) | Hexuronic Acid(UA) ([1]; individual joints, hydrocortisone 50 mg, pentosan polysulphate 5 mg) | 4M Gu HCl,PG Extractability Mean ± SD ([1]; n = 4 joints) [%] | 35S-PG Specific (activity) Mean ± SD ([1]; n = 4 joints) [DPM/ug UA] | Hexuronic Acid(UA) Mean ± SD ([1]; n = 4 joints) [ug/mg dry wt.] | in vitro biosynthesis of hyaluronic acid (HA) [2] | IC50 (HGE inhibition) [3, 6] [µg/mL] | loss of proteoglycans (uronic acid) from implanted articular cartilage [4] | IC50 (HGE inhibition) ([3]; Table 6, 1 μg HGE/ml, 0.2 mM SAAVNA, pH 7.4, 37° C.) [µg/mL] | % DIFFERENCE from SP54 (IC50, HGE) ([3]; Table 7, single inhibitor) [%] | restoration of HA biosynthesis suppressed by hydrocortisone ([2]; hydrocortisone at 10^6 M (so in the source), drug at 0.25 ug/ml, FIG. 19, 21) | restoration of HA biosynthesis suppressed by hydrocortisone ([2]; hydrocortisone at 10^8 M (so in the source), drug 0.1-1.0 ug/ml, FIG. 20) | prevention of the effects of hydrocortisone on synovial fibroblast biosynthesis of HA ([2]; in vitro) | improving proteoglycan incorporation into the extracellular matrix [5] |
| --- | --- | --- | --- | --- | --- | --- | --- | --- | --- | --- | --- | --- | --- | --- | --- |
| C[C@]12CCC(=O)C=C1CC[C@@H]1[C@@H]2[C@@H](O)C[C@@]2(C)[C@H]1CC[C@]2(O)C(=O)CO [Cortisone, hydrocortisone] | 53.2% and 57.6% and 56.8% and 51.5% | 896.8 DPM/ug UA and 866.6 DPM/ug UA and 1061.4 DPM/ug UA and 854.2 DPM/ug UA | 27.4 ug/mg dry wt. and 23.2 ug/mg dry wt. and 20.0 ug/mg dry wt. and 21.8 ug/mg dry wt. | 54.7 ± 2.9 | 919.7 ± 96.1 | 23.1 ± 3.1 | progressively inhibited | – | – | – | – | – | – | – | – |
| O=S(=O)([O-])[O-].[Zn+2] [ZnSO4, zinc sulphate] | – | – | – | – | – | – | – | 10 | – | – | – | – | – | – | – |
| pentosan polysulphate sodium salt [SP54] | – | – | – | – | – | – | stimulates the biosynthesis of hyaluronic acid (HA) | 0.381 | equally effective in preventing the loss of proteoglycans | 0.249 | 0 | almost, but not totally, restored to control value | fully restored synthesis to control values | could prevent the deleterious effects of hydrocortisone | active in vitro in improving proteoglycan incorporation into the extracellular matrix |
